From US20030129684A1, “Method for detecting fungicides” (priority 2000, published 2003)

Columns and labels:
Rhodotorula rubra [1] = assay: Bioautographic detection of various fungicides on TLC plate, staining with optical brightener, evaluation at 366 nm; type: cell-based; parameters: key to Zone of inhibition 2 ppb / Zone of inhibition 500 ppt / Zone of inhibition 100 ppt: −: no zone of inhibition; +: small zone of inhibition; ++: clearly visible zone of inhibition; conditions: for Zone of inhibition 2 ppb / Zone of inhibition 100 ppt / Zone of inhibition 500 ppt: optical brightener, 366 nm, 20 hours incubation
Method: The evaluation is carried out by staining with optical brightener (0.04% of Blankophor® BA 267% from Bayer AG, Germany, in 0.1 mol/l NaOH solution). To this end, the TLC plate is dried, wetted with the stain solution and subsequently stored for 5 minutes at room temperature. The evaluation is carried out at 366 nm. The zones of inhibition are evident as dark spots against a fluorescent background.

Rhodotorula rubra [2] = conditions: fluorescence extinction at 254 nm; result in words
Method: 200 ml of deionised water, 10 g of Sabouraud 2% glucose broth and 0.11 g of Gelrite® are boiled until sterile. The test organism is then added in the form of a lyophilisate or living culture and pre-incubated for 3 hours at 35° C.
The developed TLC plate is dipped briefly into the fungal suspension, and excess suspension is removed from the base of the plate. The TLC plate is subsequently incubated for 20 hours at room temperature in a can lined with moist paper.
The evaluation is carried out by fluorescence extinction at 254 nm.

Structure (SMILES)	Zone of inhibition 2 ppb (Rhodotorula rubra [1])	Zone of inhibition 100 ppt (Rhodotorula rubra [1])	Zone of inhibition 500 ppt (Rhodotorula rubra [1])	Detection limit (Rhodotorula rubra [1]; also printed as 2 μg/kg)	Detection limit (Rhodotorula rubra [1]; also printed as 500 ng/kg)	zone of inhibition with Rf about 1.0 (Rhodotorula rubra [2])	zone of inhibition on the starting line (Rf=0) (Rhodotorula rubra [2])
CC(Cc1ccc(C(C)(C)C)cc1)CN1C[C@@H](C)O[C@@H](C)C1 (some centres unmarked) [A1, fenpropimorph]	++	−	−	2 ppb (2 μg/kg)			
C[Si](Cn1cncn1)(c1ccc(F)cc1)c1ccc(F)cc1 [A2, flusilazole]	++	−	+		500 ppt (500 ng/kg)		
CCCC1COC(Cn2cncn2)(c2ccc(Cl)cc2Cl)O1 (centres unmarked) [A3, propiconazole]	++	−	+		500 ppt (500 ng/kg)		
CCC[CH2][Sn]([Cl])([CH2]CCC)[CH2]CCC [F1, Tributyltin Chloride]						evident	
CCC[CH2][Sn]([Cl])([CH2]CCC)[CH2]CCC [F2, Tributyltin Chloride]							evident
